According to US7863242B2, “Compositions for down-regulation of CCR5 expression and methods of use thereof” (priority 2003, dated 2011):
Like-named read-outs stand apart in the source and are kept apart here.

Key:
[1] = tested on: CCR5; assay: CCR5 surface expression on CD4 and CD8 T lymphocytes in IL-2 cultured PBMCs (flow cytometry, mAb 182); format: cell-based, human; settings: days 7 and 10, five donors tested
Description: CCR5 surface expression was measured on PBMCs cultured in the presence of IL-2 for 7-10 days.

[2] = tested on: CCR5 mRNA; assay: Semiquantitative RT-PCR of CCR5 transcripts in PBMC cultures; format: cell-based, human; settings: PBMCs cultured with IL-2 and drug for 7 days
Description: PCR Methodologies: Amplification of CCR5 and β-chemokine RNA sequences was performed by RT-PCR as described (Baba, 1996; Levine, 1996).

[3] = tested on: HIV-1 ADA; assay: microbe, parasite or virus in culture; settings: for reduction of p24 levels: day 7 after infection; for IC50: read-out: Dm (dose at 50% inhibition, equivalent to IC50 value)
Description: (§1) Infectivity Assays: The following viruses were used in infection experiments: HIV-1 IIIb, HIV-1 ADA, HIV-1 BaL, HIV-1 JRFL, HIV-1 JRCSF, and HIV-1 SF162. HIV-1 IIIb is a T cell line-adapted lab strain that uses CXCR4 for entry into cells, whereas the rest are isolates that use CCR5. Viruses were obtained from the National Institutes of Health AIDS Research and Reference Reagent Program.
(§2) For infection of PBMCs, fresh donor PBMCs were cultured for 7 days in medium containing IL-2. On day 7, cells were exposed to the virus for 3 h. Nonadsorbed virus was removed by washing cells with PBS three times. Infected cells were cultured in IL-2 medium. Infection of MDMs was carried out as described before (Perno, 1993). Unless otherwise indicated, PBMCs were infected by using an moi of 0.001, and MDM were infected by using an moi of 0.002. Virus growth was monitored in culture supernatants by measuring p24 antigen levels by ELISA (NEN) or by measuring viral RT activity in an RT assay (Willey, 1988).
(§3) Antiviral Activity of RAPA in PBMCs: The antiviral activity of RAPA was assayed in PBMCs that had been cultured in the presence of RAPA for 7 days before infection. Cells were infected with the X4 HIV-1 IIIb and the R5 HIV-1 ADA strains. Infected cells were cultured in the presence of RAPA (same concentration as during pretreatment) for 7 additional days, during which time virus replication and cell viability were measured.
To test this hypothesis, donor PBMCs were cultured in IL-2 medium in the absence or presence of RAPA (1, 10, and 100 nM). […] Infected cells were cultured in the presence of RAPA (same concentration as during pretreatment) plus 0.1 nM TAK-779. Virus production was determined 7 days after infection.
Donor PBMCs were cultured in IL-2 medium in the absence or presence of HU (0 and 10 uM). After 7 days, cells were infected with HIV-1 ADA. Infected cells were cultured in the presence of HU (same concentration as during pretreatment) plus different concentration of TAK-779 ranging from 0, 2 and 20 nM). Virus production was determined 7 days after infection.
In order to determine the nature and degree of interaction between RAPA and T20, infectivity assays were performed in the presence of the drugs, alone and in combination. The infectivity assays were performed using PBMCs from healthy donors. PBMCs were cultured for 7 days in the presence of IL-2 (100 U/ml) in the presence or absence of RAPA. On day 7, cells were infected by exposure to the R5 strain HIV-1 ADA (m.o.i of 0.001) for 2 h. Non-adsorbed virus was removed by 3 washes with PBS. Infected cells were then plated in RPMI-10 supplemented with IL-2 (100 U/ml) in the presence of different concentrations of RAPA and T20. Each drug concentration was tested in triplicate. Medium was changed in day 3 after infection and drugs were added at the same concentration as before. On day 7 after infection, virus production was measured in the culture supernatants using a commercial p24 antigen ELISA (NCI, Frederick). Cell viability was determined using the MTT assay (Roche).
The antiviral data was then analyzed for synergy using two different methodologies, the Median Effect principle and Three Dimensional modeling.

[4] = tested on: CCR5; assay: CCR5 cell-surface expression on maturing monocytes (CD14-gated flow cytometry); format: cell-based, human; settings: monocytes cultured 5 days, three donors
[5] = tested on: MIP-1α; assay: Extracellular MIP-1α level in PBMC culture supernatants (ELISA); format: cell-based, human; settings: day 10, four donors
[6] = tested on: MIP-1β; assay: Extracellular MIP-1β level in PBMC culture supernatants (ELISA); format: cell-based, human; settings: for increase of MIP-1β protein versus untreated control: day 10
Description: Levels of the β-chemokines MIP-1α, MIP-1β, and RANTES were measured in culture supernatants by using ELISA kits (R & D Systems).
RAPA Increases Extracellular Levels of MIP-1α and MIP-1β in PBMC Cultures: Because lymphocytes and monocytes cultured in the presence of RAPA presented reduced CCR5 RNA and protein levels, the levels of the CCR5 ligands MIP-1α, MIP-1β, and RANTES were measured in supernatants of RAPA-treated PBMC cultures. […] On day 10, percentage of cells expressing CCR5 and supernatant chemokine content were determined for each donor. […] Among the different donors, RAPA-treated cultures contained 6-39-fold higher levels of MIP-1α than untreated cultures. Similarly, MIP-1β levels were increased 17-47-fold in the presence of RAPA as compared with untreated controls. […] Chemokine results obtained in two of the donors, showing disparity of RANTES levels in the presence of RAPA, are depicted in FIG. 3A.
The above results were confirmed by evaluating the effect of RAPA on the secretion of MIP-1β, a chemokine that uses CCR5 as its only receptor, in cultures of PBMCs derived from a donor homozygous for the Δ32 mutation in the CCR5 gene. In this experimental setting, in which MIP-1β cannot be endocytosed by CCR5, the effect of RAPA on MIP-1β protein levels provided information regarding the mechanism by which RAPA increases β-chemokine levels. To this end, stimulated PBMCs from two normal donors and from a CCR5-null donor were cultured in the presence of RAPA as in previous experiments. MIP-1β levels in supernatants were evaluated on day 10. Representative results obtained in one of the normal donors are shown in FIG. 3B next to the results obtained on the CCR5-null donor.

[7] = tested on: HIV-1 IIIb; assay: HIV-1 IIIb replication in PBMCs (p24 assay); format: cell-based; settings: Human immunodeficiency virus 1, IIIB, PBMC, 7 days pretreatment, day 7 after infection
Description: as §1, §2
as §3, with “Cells were infected with the X4 HIV-1 IIIb and the R5 HIV-1 ADA strains.” left out

[8] = tested on: R5 strains of HIV-1; assay: Replication of a panel of five R5 strains of HIV-1 in PBMCs; format: cell-based; settings: Human immunodeficiency virus 1, PBMC
Description: as §1, §2
RAPA at 0.01 nM inhibited R5 HIV-1 by 10-64% depending on the strains, whereas 0.1 nM RAPA inhibited virus replication by 15-85%. At 1 nM RAPA, all R5 viruses were inhibited by ≧90%.

[9] = tested on: HIV-1 ADA; assay: HIV-1 ADA replication in monocyte-derived macrophages (RT assay); format: cell-based
Description: as §2
(§4) To this end, donor monocytes were cultured for 5 days in the presence of RAPA. On day 5, cells were infected with HIV-1 ADA. Infected cells were cultured in the presence of RAPA for an additional 14 days. Virus production was measured on the culture supernatants on days 7, 10, and 14 after infection. Cell viability was measured by the MTT assay at the end of the experiment.
In the above-described experiment, monocytes had been pretreated with RAPA during the 5-day differentiation period. To control for the possible interference of RAPA with the process of monocyte differentiation, a new infection experiment in which RAPA was not present during the 5-day monocyte differentiation period was designed. To this end, fresh monocytes were cultured for 5 days in the absence of RAPA. On day 5, cells were infected with HIV-1 ADA and then exposed to RAPA.

[10] = tested on: HIV-1 SF 162; assay: HIV-1 SF 162 replication in monocyte-derived macrophages; format: cell-based; settings: Human immunodeficiency virus 1, Macrophage; RAPA at 0.01 nM, additional experiment; read-out: inhibition of HIV-1 SF 162 in MDMs
Description: as §2, §4

[11] = tested on: MDMs; assay: Cell viability of infected MDMs (MTT assay); format: cell-based, human; settings: end of experiment (day 14 after infection)
Description: as §4

[12] = Tolerability of Rapamycin in HIV infected volunteers; format: in vivo, human; settings: 2 mg/day after 6 mg loading dose, 28 days
Description: To assess the expression activity of CCR5 and its effects on levels of CCR5 receptors in vivo, an open-labeled, non-randomized proof of concept trial was performed in which 8 volunteers with established HIV infection were given 2 mg/day of Rapamycin, following a 6 mg loading dose, for 28 days. Peripheral blood for determining expression levels of CCR5 was obtained at the screening visit, days 7, 14 and 28 of the Rapamycin dosing, and at day 42 (which was two weeks following the last dose of Rapamycin).

[13] = tested on: PBMCs; settings: PBMCs with IL-2, day 7
[14] = tested on: HIV-1 ADA; assay: Serial passage of HIV-1 ADA in PBMCs, emergence of T20 resistance (RT assay); format: cell-based
Description: HIV-1 ADA was passaged in PBMCs 21 times in the presence of RAPA, T-20 or RAPA+T20. After every passage, virus content in the culture supernatant was measured using the RT assay.
HIV-1 replication in the presence of T20 leads to the emergence of drug resistant strains in vitro and in vivo, and this resistance is associated with mutations in the aa 36-45 of gp 41. […] To this end, HIV-1 ADA was passaged weekly for 24 weeks in the presence of RAPA, T20 and RAPA/T20 combined.

[15] = tested on: human lymphocytes; assay: Cell cycle analysis of activated PBMCs (propidium iodide, flow cytometry); format: cell-based; settings: 4 μM, 24 hours, PBMCs from 2 normal donors
Description: Indirubin-3′-monoxime (IM) arrests human lymphocytes in G1 phase. PBMCs from 2 normal donors were activated in absence and presence of 4 μM Indirubin-3′-momoxime (IM) for 24 hours. Cells were then fixed with 70% Ethanol, stained with Propidium Iodide, and analyzed by Flow cytometry. Percentages of cells in each phase of the cell cycle are shown.

[16] = Human immunodeficiency virus 1, PBMC, 168 h, read-out: Fa (fractional inhibition)

Molecule: NC(=O)NO [HU, hydroxyurea]
- concentrations that down-regulated CCR5 surface expression on CD4 lymphocytes [1]: ≥ 50 µM
- CCR5 transcripts (semiquantitative RT-PCR) [2]: decreased amounts of CCR5 transcripts
- reduction of p24 levels ([3]; 10 uM of HU alone): approximately 60%

Molecule: Cc1ccc(-c2ccc3c(c2)C=C(C(=O)Nc2ccc(C[N+](C)(C)C4CCOCC4)cc2)CCC3)cc1.[Cl-] [TAK-779, N,N-dimethyl-N-[4-[[[2-(4-methylphenyl)-6,7-dihydro-5H-benzocyclohepten-8-yl]carbonyl]amino]benzyl]tetrahydro-2H-pyran-4-aminium chloride]
- reduction of p24 levels ([3]; 2 nM of TAK-779 alone): about 20%
- inhibition at 0.0001 µM ([3]; Human immunodeficiency virus 1, PBMC, 168 h, read-out: inhibition of virus replication): 21%

Molecule: CO[C@H]1C[C@@H]2CC[C@@H](C)[C@@](O)(O2)C(=O)C(=O)N2CCCC[C@H]2C(=O)O[C@H]([C@H](C)C[C@@H]2CC[C@@H](O)[C@H](OC)C2)CC(=O)[C@H](C)/C=C(\C)[C@@H](O)[C@@H](OC)C(=O)[C@H](C)C[C@H](C)/C=C/C=C/C=C/1C [RAPA, rapamycin]
- concentrations that down-regulated CCR5 surface expression on CD4 lymphocytes [1]: ≥ 0.001 µM
- concentrations giving consistent down-regulation of CCR5 surface expression on monocytes [4]: ≥ 10 pM
- MIP-1α level versus untreated cultures [5]: 6-39 fold
- increase of MIP-1β protein versus untreated control ([6]; CCR5-null donor (Δ32 homozygous)): 1.2 fold
- MIP-1β level versus untreated controls ([6]; day 10, four donors): 17-47 fold
- increase of MIP-1β protein versus untreated control ([6]; normal donor): 9.3 fold
- IC50 ([3]; Human immunodeficiency virus 1, PBMC, 168 h): 0.31 nM
- inhibition at 30 pM [3, 16]: 1.7%
- inhibition at 60 pM [3, 16]: 10.2%
- inhibition at 0.00012 µM [3, 16]: 11.4%
- inhibition at 0.00025 µM [3, 16]: 54%
- inhibition at 0.0005 µM [3, 16]: 62%
- inhibition at 0.001 µM [3, 16]: 88%
- inhibition at 0.01 µM ([7]; 10 nM RAPA): 13.5%
- inhibition at 0.1 µM ([7]; 100 nM RAPA): 32%
- inhibition at 10 pM ([8]; read-out: inhibition of R5 HIV-1, depending on the strains): 10 to 64%
- inhibition at 0.0001 µM ([8]; read-out: inhibition of R5 HIV-1 replication): 15 to 85%
- inhibition at 0.001 µM ([8]; read-out: inhibition of all R5 viruses): ≥ 90%
- inhibition of virus replication in already differentiated macrophages ([9]; 1 nM RAPA added after infection on day 5, day 14 after infection, one value per donor): ~80%
- inhibition at 0.001 µM ([9]; Human immunodeficiency virus 1, Macrophage, 1 nM RAPA added after infection on day 5, day 14 after infection, one value per donor, read-out: inhibition of virus replication in already differentiated macrophages): ~60%
- inhibition at 10 pM ([9]; Human immunodeficiency virus 1, Macrophage, RAPA at 0.01 nM, additional experiment, read-out: inhibition of HIV-1 ADA in MDMs): 64%
- inhibition of virus production in MDMs ([9]; RAPA 0.1-100 nM, present during 5-day differentiation, day 14 after infection): 70-95%
- inhibition at 10 pM [10]: 45%
- concentrations at which cell viability was reduced [11]: ≥ 10 nM
- tolerability [12]: well-tolerated
- drug concentration at which drug toxicity was observed [13]: above 10^3 nM

Molecule: enfuvirtide
- Fa (fractional inhibition) ([3]; T-20 1.5 nM alone, p24 day 7): 0.210
- Fa (fractional inhibition) ([3]; T-20 3.12 nM alone, p24 day 7): 0.260
- Fa (fractional inhibition) ([3]; T-20 6.25 nM alone, p24 day 7): 0.400
- Fa (fractional inhibition) ([3]; T-20 12.5 nM alone, p24 day 7): 0.600
- Fa (fractional inhibition) ([3]; T-20 25 nM alone, p24 day 7): 0.810
- Fa (fractional inhibition) ([3]; T-20 50 nM alone, p24 day 7): 0.980
- IC50 ([3]; drug used alone, p24 day 7): 6.16 nM
- antiviral activity on passaged virus ([14]; T20 100 nM, from the 11th passage onwards): did not exert antiviral activity
- sensitivity of passaged virus to T20 ([14]; T20 alone, 10th passage): reduced sensitivity to T20
- inhibition of virus replication ([14]; T20 alone, initial 9 passages): > 75%

Molecule: Indirubin-3′-monoxime
- percentage of cells in G1 phase versus untreated control [15]: the % of cells in G1 increases
